Legend:
[1] = Solubility of bazedoxifene acetate forms (dynamic dissolution method using Crystal-16 and HPLC method); format: physicochemical; conditions: for solubility compared with Form B: crystallization solvent
Description: The profiles of the temperature and magnetic stirring speed for each row may be independently adjusted. The turbidity of each vial was monitored and plotted with the temperature profiles to determine dissolution and precipitation points of solids. A pre-weighed amount of solid and solvent were mixed together in clear glass vials, and were heated slowly (at 0.2° C./min). The dissolution temperature was recorded. The concentration of the solution (calculated based on the weight of solid and solvent) was treated as the saturation concentration at the recorded temperature, and solubility was calculated based on this concentration. […] The suspension was filtered after stirring for 30 minutes and the solution concentration was analyzed by HPLC. The measured solubility data for the two methods are plotted in FIGS. 4 and 5.

ovariectomized rat = ovariectomized rat model of osteopenia; cited from earlier work
uterine response = conditions: preclinical models of uterine stimulation; cited from earlier work
[2] = test system: MCF-7 cell line (human breast cancer cell line); conditions: cited from earlier work

CC(=O)O.Cc1c(-c2ccc(O)cc2)n(Cc2ccc(OCCN3CCCCCC3)cc2)c2ccc(O)cc12 [Form A]
solubility compared with other forms ([1]; all conditions studied, crystallization solvent and slurry test solvent): higher than Forms B and D

Cc1c(-c2ccc(O)cc2)n(Cc2ccc(OCCN3CCCCCC3)cc2)c2ccc(O)cc12 [Form D, 1-[4-(2-azepan-1-yl-ethoxy)-benzyl]-2-(4-hydroxy-phenyl)-3-methyl-1H-indol-5-ol acetic acid]
solubility compared with Form A ([1]; at 0-60° C.): less soluble
solubility compared with Form B ([1]; above about 30° C.): slightly higher than that of Form B
solubility compared with Form B ([1]; below about 30° C.): very similar to Form B solubility

Cc1c(-c2ccc(O)cc2)n(Cc2ccc(OCCN3CCCCCC3)cc2)c2ccc(O)cc12 [bazedoxifene acetate, 1-[4-(2-azepan-1-yl-ethoxy)-benzyl]-2-(4-hydroxy-phenyl)-3-methyl-1H-indol-5-ol acetic acid]
preventing bone loss (ovariectomized rat): estrogen agonist-like effect
reducing cholesterol (ovariectomized rat): estrogen agonist-like effect
stimulation of uterine response (uterine response): little or no stimulation
estrogen agonist/antagonist behaviour [2]: behaves as an estrogen antagonist
